Several values for one entry are separate records, joined by “and”; a condition that tells them apart may be missing. Equal values may be shown once.
How the values were obtained:
[1] = system: FLT3-TKD mutation; test: FLT3-TKD mutation activity (comparison of FLT-3 inhibitors); settings: compound A
[2] = Preclinical animal experiments of compound A, adverse reactions; format: in vivo
[3] = system: Chinese adult subjects with FLT3-mutant R/R AML; test: Phase II clinical study, efficacy; format: in vivo, human; settings: for Overall CR rate (95% CI), (CR+CRh+CRi)/enrolled subjects / best efficacy: CR / best efficacy: CRh / best efficacy: CRi / best efficacy: NE / best efficacy: PD / best efficacy: PR / best efficacy: SD: FAS; for disengagement from blood transfusion: the CR and the CRh subject
Procedure: 28 consecutive days was regarded as one treatment cycle.
The trial started with the 150 mg BID group, and after completing the first cycle of the tolerability investigation of 3 subjects in this group, the tolerability study of the 200 mg BID group was carried out. The principle of the subject enrollment was to give priority to meeting three subjects in the tolerability investigation period. Since the 300 mg QD group had been proven to be well tolerated in a single tolerability trial, other qualified subjects screened during the tolerability investigation period could directly enter the 300 mg QD group.
The second stage was the dose expansion period. After the completion of the first cycle of the study in a dose group, if the investigator assessed that the subjects had significant benefits, the dose group would undergo the cohort expansion to further explore possible effective doses, and continue to increase to at least 10 subjects. During this period, investigators, sponsors, quantitative pharmacology experts, clinical pharmacology experts, and statistical experts discussed whether to continue the cohort expansion according to the efficacy of the dose group (see FIG. 1 for the specific trial method).
Overall CR (CR, CRh, CRi) rate: defined as the proportion of subjects who achieved CR, CRh, CRi during Compound A treatment among all subjects enrolled in this study. Subjects who were not assessed for response were included in the denominator when calculating the response rate.
(1) Three year overall survival (OS): the OS time was referred to the time from the first drug administration to the death from any cause within 3 years.
(2) Three year event-free survival (EFS): it was referred to the time from the randomized enrollment to the first occurrence of any of the following conditions within 3 years: (1) no CR (CR, CRh, CRi) occurred within 6 months of treatment, (2) relapsed after reaching the specified CR (CR, CRh, CRi), (3) disease progression, (4) all-cause death at any time during the study, whichever occurred first.
(3) Duration of response-CR (DoR-CR): the DoR-CR time was referred to the time from the first achievement of CR to the recording of hematological relapse, extramedullary disease, or death from any cause (whichever was earlier).

[4] = 0 unfavorable prognostic factors (4 subjects)
[5] = 1 unfavorable prognostic factor (9 subjects)
[6] = 2 unfavorable prognostic factors (15 subjects)
[7] = 3 subjects with FLT3-ITD^high mutation (≥0.5)
[8] = 3 subjects with FLT3-ITD^low mutation (<0.5)
[9] = 10 subjects with prior sorafenib treatment

## CC(C)n1c(Nc2cccnc2)nc2cnc(Nc3ccc(N4CCN(C)CC4)cc3)nc21 [Compound A]
[1]
  FLT3-TKD mutation activity: No
[2]
  heart-related adverse reactions: myocardial cell necrosis and fibrosis, increased heart rate, and QT interval prolongation in dying animals
  liver-related adverse reactions: hepatocyte degeneration and necrosis and elevated transaminase
[3]; [4]
  CRh: 2 subjects
  CRi: 1 subjects
  Overall CR rate: 75%
[3]; 0 unfavorable prognostic factors (4 subjects), listed as compound A
  Overall CR rate: 75%
[3]; 150 mg BID group (N = 14)
  Overall CR rate (95% CI), (CR+CRh+CRi)/enrolled subjects: 28.6 (8.39-58.10) %
  best efficacy: CR: 1 (7.1%) n (%) and 1 (7.1) n (%)
  best efficacy: CRh: 1 (7.1%) n (%) and 1 (7.1) n (%)
  best efficacy: CRi: 2 (14.3%) n (%) and 2 (14.3) n (%)
  best efficacy: NE: 2 (14.3) n (%)
  best efficacy: PD: 1 (7.1) n (%)
  best efficacy: PR: 2 (14.3) n (%)
  best efficacy: SD: 5 (35.7) n (%)
[3]; 150 mg BID group, 3-month
  survival rate: 64.3%
[3]; 150 mg BID group, 6-month
  survival rate: 38.6%
[3]; 150 mg BID group, 9-month
  survival rate: 25.7%
[3]; 150 mg BID group, 11-month
  survival rate: 25.7%
[3]; 150 mg BID group, 14 subjects
  CR/CRh cases: 2 (14.3%) n (%)
[3]; 150 mg BID group
  disengagement from blood transfusion: ≥ 56 days
[3]; 150 mg BID group, 95% CI 1.3-5.9
  median EFS: 4.9 months
[3]; 150 mg BID group, 95% CI 2.3-NC
  median OS: 4.2 months
[3]; 150 mg BID group, range 2-3 months
  median time to the first CR: 2.5 months
[3]; 200 mg BID group (N = 4)
  Overall CR rate (95% CI), (CR+CRh+CRi)/enrolled subjects: 0 (0.00-60.24) %
  best efficacy: CR: 0 (0) n (%)
  best efficacy: CRh: 0 (0) n (%)
  best efficacy: CRi: 0 (0) n (%)
  best efficacy: NE: 1 n (%) and 1 (25.0) n (%)
  best efficacy: PD: 0 (0) n (%)
  best efficacy: PR: 0 (0) n (%)
  best efficacy: SD: 3 n (%) and 3 (75.0) n (%)
[3]; 200 mg BID group, 3-month
  survival rate: 25%
[3]; 200 mg BID group, 95% CI 0.7-3.0
  median EFS: 2.3 months
[3]; 200 mg BID group, 95% CI 0.7-NC
  median OS: 2.9 months
[3]; 300 mg QD group (N = 13)
  Overall CR rate (95% CI), (CR+CRh+CRi)/enrolled subjects: 30.8 (9.09-61.43) %
  best efficacy: CR: 1 n (%) and 1 (7.7) n (%)
  best efficacy: CRh: 1 n (%) and 1 (7.7) n (%)
  best efficacy: CRi: 2 n (%) and 2 (15.4) n (%)
  best efficacy: NE: 0 (0) n (%)
  best efficacy: PD: 0 (0) n (%)
  best efficacy: PR: 0 (0) n (%)
  best efficacy: SD: 9 (69.2) n (%)
[3]; 300 mg QD group, 3-month
  survival rate: 75.2%
[3]; 300 mg QD group, 6-month
  survival rate: 50.1%
[3]; 300 mg QD group
  disengagement from blood transfusion: ≥ 56 days
[3]; 300 mg QD group, 95% CI 1.7-6.2
  median EFS: 2.9 months
[3]; 300 mg QD group, 95% CI 2.7-NC
  median OS: 4.4 months
[3]; 300 mg QD group, range 1-3 months
  median time to the first CR: 1.5 months
[3]; [5]
  CRi: 2 subjects
  NE: 1 subjects
  Overall CR rate: 20%
  PR: 1 subjects
[3]; [6]
  CR: 2 subjects
  CRi: 1 subjects
  Overall CR rate: 20%
  PR: 1 subjects
[3]; [7]
  subjects achieving CRh: 2 subjects
  subjects achieving SD: 1 subject
[3]; [8]
  subjects achieving PR as the best response: 1 subject
  subjects achieving SD as the best response: 2 subjects
[3]; 3 unfavorable prognostic factors (3 subjects)
  Overall CR rate: 0%
[3]; 8 subjects with CR/CRh/CRi
  proportion of the M5 subjects among subjects who achieved CR/CRh/CRi: 62.5%
[3]; 9 subjects with TKD mutations
  subjects achieving CRi: 2 subjects
[3]; [9]
  subjects achieving CR: 1 subject
  subjects achieving CRh: 1 subject
  subjects achieving CRi: 1 subject
[3]; 22 subjects with ITD mutations
  subjects achieving CR: 2 subjects
  subjects achieving CRh: 2 subjects
  subjects achieving CRi: 2 subjects
[3]; 31 subjects, 95% CI 2.6-5.4
  median EFS: 3.0 months
[3]; 31 subjects, 95% CI 2.9-NC
  median OS: 4.4 months
[3]; Case 2, 300 mg QD, at C3
  response: CRi
[3]; Case 2, 300 mg QD, at C4
  response: CRh
[3]; Case 3, 300 mg QD, C2
  response: CRi
[3]; Case 3, 300 mg QD, C3
  response: CRh
[3]; Case 3, 300 mg QD, in C2 (from 33.5%)
  myeloblast: 3%
[3]; Case 3, 300 mg QD, in C3
  myeloblast: 2%
[3]; Case 4, 150 mg BID, at C2
  response: CRi
[3]; Case 4, 150 mg BID, at C3
  response: CRh
[3]; Case 5, 150 mg BID
  duration of the CR response: 5 cycles
[3]; Case 5, 150 mg BID, C11
  response: CRi
[3]; Case 5, 150 mg BID, C12
  response: CRi
[3]; Case 5, 150 mg BID, after C1
  myeloblast: 3%
[3]; FAB M2 type (1/6)
  CR/CRh/CRi proportion: 16.7%
[3]; FAB M4 type (2/9)
  CR/CRh/CRi proportion: 22.2%
[3]; FAB M5 type (5/14)
  CR/CRh/CRi proportion: 35.7%
[3]; Total (N = 31)
  Overall CR rate (95% CI), (CR+CRh+CRi)/enrolled subjects: 25.8 (11.86-44.61) %
  best efficacy: CR: 2 (6.5%) n (%) and 2 (6.5) n (%)
  best efficacy: CRh: 2 (6.5%) n (%) and 2 (6.5) n (%)
  best efficacy: CRi: 4 (12.9%) n (%) and 4 (12.9) n (%)
  best efficacy: NE: 3 (9.7) n (%)
  best efficacy: PD: 1 (3-2) n (%)
  best efficacy: PR: 2 (6.5%) n (%) and 2 (6.5) n (%)
  best efficacy: SD: 17 (54.8) n (%)
[3]; subjects with 1-2 unfavorable prognostic factors
  Overall CR rate: 20%
[3]; the SD subject with FLT3-ITD^high mutation, at C2
  blast cells decreased compared with the baseline: 70%
